Results as given in EP2386565A2, “Compounds and methods to inhibit or augment an inflammatory response” (Cambridge Enterprise Ltd., priority 1999, dated 2000).
Non-standard residues stand in square brackets, D forms with d. Residues, ends and D or L forms follow the SMILES beside them. No end group written: not given here. *: point of attachment. Biotin = O=C1N[C@H]2[C@H](CS[C@H]2CCCCC(=O)*)N1

Experiments:
[1] = test system: SDF-1α induced THP-1 migration; assay: THP-1 trans-well migration assay, SDF-1α as chemoattractant; assay type: cell-based, human; conditions: inhibition of THP-1 migration; n.s./ns = not statistically significant
Experimental: (§1) To determine whether an agent inhibits a chemokine-induced activity, such as macrophage recruitment, varying amounts of the agent are mixed with cells in the presence of a known chemoattractant. For example, a range of known concentrations of an agent, e.g., a chemokine peptide, is incubated with a defined number (e.g., 10^4 - […]) of human THP-1 monocyte cells in individual wells of the top compartment of a trans-well plate. Chemokine (such as MCP-1, MIP1α, IL8 or SDF-1α), at a concentration known to cause significant migration of THP-1 cells in the trans-well migration assay, is placed in the lower compartment (Figure 1). Cells are then incubated at 37°C for a period sufficient to allow migration, e.g., 4 hours. After incubation, the cells are gently removed from the top of the filter with a pipette, 20 µl of 20 mM EDTA in simple PBS is added into each top well, and incubated for 20 minutes at 4°C. The filter is carefully flushed with media using a gentle flow, and removed. A standard curve consisting of a two-fold dilution series of THP-1 cells (in 29 µl) is prepared to accurately quantify the number of cells that have migrated. Migrated cells are stained with 3 µl of MTT stock dye solution which is added directly into each well (5 mg/ml in RPMI-1640 without phenol red, Sigma Chemical Co.) and incubated at 37°C for 4 hours. The media is carefully aspirated from each well, and the converted dye is solubilized by 20 µl of DMSO. Absorbance of converted dye is measured at a wavelength of 595 nm using an ELISA plate reader. The number of migrated cells in each well is then determined by interpolation of the standard curve (see also Imai et al.,J. Biol. Chem., 272, 15036 (1997)).
(§2) For this assay, THP-1 cells were maintained at a density of 4 × 10^5 cells per ml in RPMI-1640 supplemented with 10% fetal calf serum + 20 µM 2-mercaptoethanol. Chemotaxis was induced in a 96-well disposable chemotaxis chamber fitted with a 5 µM polycarbonate filter (PVP free, ChemoTX, Neuroprobe Inc., Cabin John). Twenty-nine µl of chemoattractant (recombinant human chemokine; 50 ng/ml, i.e., 5.9 nM) or control (100 ng/ml TGFβ) was added to the lower compartment of each well. The framed filter was aligned with the holes in the corner of the filter frame and placed over the wells.
(§3) Five × 10^4 THP-1 cells in 25 µl of RPMI-1640 were added to the upper compartment. Peptides were dissolved in Milli Q water and then serially diluted in culture medium. In most cases, the serially diluted peptides were added to the upper compartment of the chemotaxis chamber. The chamber was incubated at 37°C in a humidified atmosphere of 5% CO2 for 4 hours.
(§4) After incubation, the cells were gently removed from the top of the filter with a pipette, 20 µl of 20 mM EDTA in PBS was added into each top well, and the mixture was incubated for 20 minutes at 4°C. The filter was then carefully flushed with media using a gentle flow, and removed. A standard curve was prepared to accurately quantify the number of THP-1 cells that had migrated. The curve was based on a two-fold dilution series of THP-1 cells (top standard 100,000 cells in 29 µl). Cells which had migrated, and in separate wells, the cells in the standards, were stained with 3 µl of MTT stock solution which was added directly into each well (5 mg/ml in RPMI 1640 without phenol red, Sigma Chemical Co.) and incubated at 37°C for 4 hours. The media was carefully aspirated from each well, and the converted dye was solubilized by 20 µl of DMSO. Absorbance of converted dye was measured at a wavelength of 595 nm using an ELISA plate reader. The number of cells that had migrated in each well was determined by interpolation of the standard curve.
(§5) To investigate the receptor specificity of peptide 3 inhibition, the ED50 was determined for peptide 3(1-12)[MCP-1] (SEQ ID NO:1) inhibition of THP-1 migration induced by chemokines which signal through different receptors than MCP-1 receptors. […]

[2] = test system: MCP-1 induced THP-1 migration; assay: THP-1 trans-well migration assay, MCP-1 as chemoattractant; assay type: cell-based, human
Experimental: as §1
Any method suitable for counting cells can be used, for example, counting with a hemocytometer, incubation of the cells with MTT (see above), or FACS analysis. A negative control assay is also performed, using TGF-β or another non-chemokine chemoattractant (e.g., IL1β or TNFα). To assess whether the agent is cytotoxic, the same concentrations of agent are incubated with THP-1 cells. Agents which 1) are not cytotoxic at levels which inhibit migration, 2) are ineffective at inhibiting the negative control-induced migration, and 3) reduce or inhibit chemokine-induced THP-1 migration, are agents which fall within the scope of the invention.
as §2, with “Twenty-nine µl of chemoattractant (recombinant human chemokine; 50 ng/ml, i.e., 5.9 nM) or control (100 ng/ml TGFβ) was added to the lower compartment of each well.” left out
as §3
as §4, with “Absorbance of converted dye was measured at a wavelength of 595 nm using an ELISA plate reader. The number of cells that had migrated in each well was determined by interpolation of the standard curve.” left out

[3] = test system: MIP1α induced THP-1 migration; assay: THP-1 trans-well migration assay, MIP1α as chemoattractant; assay type: cell-based, human; conditions: inhibition of THP-1 migration; n.s./ns = not statistically significant
Experimental: as §1, §2, §3, §4, §5

[4] = test system: gp120; conditions: ns = not significant; >100 = ED50 not determined
Experimental: Binding assays. Cells (either Jurkat T-cells or THP-1 cells) were grown in RPMI 1640 medium supplemented with 10% fetal calf serum, 2 mM glutamine, 20 µM β-mercaptoethanol, 100 U/ml penicillin and 100 µg/ml streptomycin and maintained between 2 × 10^5 and 1 × 10^6 cells/ml. Prior to performing a binding assay, cells were spun out (100 × g; 4 minutes) and washed 3 times in ice-cold PBS. A volume of cell suspension in PBS containing 10^6 cells (for Jurkat cells) or 4 × 10^5 cells (for THP-1 cells) was pipetted into each well of a V-bottom 96-well plate (Gibco BRL) and spun out (100 x g; 4 minutes). Triplicate wells were then resuspended in 100 µl binding medium (PBS pH 7.2 containing 0.1% fatty acid-free bovine serum albumin (BSA)) containing labeled peptide in the presence or absence of various concentrations of unlabeled peptide. The plate was then incubated on ice for 90 minutes. Cells were washed 3 times with 380 µl of ice-cold PBS, spinning out the cells each time (100 × g; 4 minutes), and resuspended in 100 µl binding medium containing streptavidin-peroxidase (Amersham International) at 1:1000 dilution. Cells were incubated for a further 15 minutes on ice to allow labeling of any bound biotinylated peptide, then washed 4 times as above. Cells were then incubated with 200 µl TMB substrate (K-Blue, Bionostics) for 20 minutes at room temperature, and the reaction stopped by addition of 50 µl 2 M HCl. The plate was spun (3,000 × g; 3 minutes) and 200 µl of the colored product was transferred to an empty 96-well ELISA plate and the absorbance at 450 nm determined. For each assay, the absorbance of a blank reaction (no peptide added) was subtracted from all readings before further analysis.
Binding experiments with labeled peptide 2 were performed with 10 nM labeled peptide in each reaction.

[5] = test system: HIV; assay type: cell-based; conditions: ns = not significant
[6] = Pharmacokinetics of radiolabeled D-ala peptide after IV or SQ bolus; assay type: in vivo, mice
Experimental: When ^3H-D-ala peptide 3(1-12)[MCP-1] (^3H-D-ala was attached to Asp) was given as an intravenous (IV) or subcutaneous (SQ) bolus to mice, peak serum concentrations were reached within 1 hour. This radiolabeled peptide was rapidly excreted (approximately 4 hours), primarily via the kidney. […] Direct comparison of ^3H-D-ala peptide 3(1-12)[MCP-1] (no DARC binding and rapidly cleared) and CRD-L-Leu4Ile11Cys13peptide 3(3-12)[MCP-1]

[7] = test system: recombinant human chemokine receptors; assay: Binding of biotin-labeled peptide to parental and chemokine receptor expressing HOS and CHO lines (125I-streptavidin); conditions: labeled peptide at 10 µM
Source text: HOS parental cells and CCR1-5 and CXCR4 transformants were obtained from the AIDS Reagent Program and were maintained as described on the supplier data sheet. Selection for the chemokine receptor-expressing plasmid was maintained throughout culture. CHO parental cells and CXCR1 and CXCR2 transformants were obtained form Dr. J. Navarro (Southwestern University, TX, USA) and maintained as described by the supplier under constant selection for expression of the chemokine receptor. All cells were split at about a 1:10 dilution approximately every 4 days, releasing the cells with EDTA solution and reseeding at known density. […]
The binding of labeled peptide 2 and labeled peptide 3 to the parental HOS, parental CHO and 8 chemokine receptor expressing lines was compared. […] The amount of streptavidin molecules added was calculated in each case to be approximately 50-fold in excess over the number of chemokine receptor sites. […]
To determine whether this apparent binding of peptide 2 was cell dependent, or whether it was binding to the plastic (or the some component of the fetal calf serum used during the cell culture), the following experiment was conducted. Three plates were evaluated: One had HOS parental cells, another had CCR5 over-expressors and the third had no cells but was incubated with the FCS-containing culture medium. […]

## CC[C@@H](C)[C@@H](NC(=O)[C@H](NC(=O)[C@@H](CO)NC(=O)[C@@H](CO)NC(=O)[C@@H](CCCCN)NC(=O)[C@@H](CO)NC(=O)[C@H]1CCCN1C(=O)[C@@H](CCCCN)NC(=O)[C@@H](CCC(=O)O)NC(=O)[C@@H](C)NC(=O)[C@H](NC(=O)[C@H](N)CS)C(C)C)[C@H](C)O)C(=O)N[C@H](CCCNC(=N)N)C(=O)N[C@H](CCCNC(=N)N)C(=O)N[C@H](Cc1ccc(O)cc1)C(=O)N[C@H](CO)C(=O)N[C@H](CS)C(=O)O [cvaekpsksstirrysc] (H-[dC][dV][dA][dE][dK][dP][dS][dK][dS][dS][dT][dI][dR][dR][dY][dS][dC]-OH; N-terminus and C-terminus assumed)
[1]
  ED50 (µM) versus SDF-1α: ns
[2]; inhibition of THP-1 migration, n.s./ns = not statistically significant
  ED50 (µM) versus MCP-1: ns
[3]
  ED50 (µM) versus MIP1α: ns
[4]
  gp120 ED-50 (µM): ns
[5]
  % virus inhibition: ns

## ^3H-D-ala peptide 3(1-12)[MCP-1]: ^3H-D-ala was attached to Asp (EICAD(3H‑D‑Ala)PKQKWVQ; not fully specified)
[6]
  time of excretion, primarily via the kidney: approximately 4 hours
  time to peak serum concentrations: ≤ 1 h

## labeled peptide: N-terminal biotin conjugate of the sequence n'-CLDPKQKWIQC-c' (Biotin-CLDPKQKWIQC; cysteine pairing not given here)
[2]; MCP-1 at 100 ng/ml in RPMI 1640 + 10% FCS, 4 hours, 5 µm filter
  ED50 for inhibition of MCP-1 induced migration: about 4 µM
[7]
  binding to parental and chemokine receptor expressing cell lines (in words): No detectable binding
